Measurements from publication PMC8964227, “IP-Se-06, a Selenylated Imidazo[1,2-a]pyridine, Modulates Intracellular Redox State and Causes Akt/mTOR/HIF-1α and MAPK Signaling Inhibition, Promoting Antiproliferative Effect and Apoptosis in Glioblastoma Cells” (Oxidative Medicine and Cellular Longevity, 2022).

How the values were obtained:
[1] = system: A172 cells; experiment: MTT cytotoxicity assay, A172; type: cell-based, human; settings: for IC50: Homo sapiens, A 172, 72 h, MTT; for Selectivity Index (SI): IC50 in normal cell line (HT-22)/IC50 in A172
Experimental: (§1) Cell viability after treatments with selenylated imidazo[1,2-a]pyridines (IP-Se-01–IP-Se-10) was analyzed by quantitative colorimetric assay with MTT, according to Mosmann. IP-01, a prototype molecule without the addition of the selenium in its structure, was also tested. A172 and HT-22 cells were cultured in 96-well plates (10^4 cells/well). After confluence, cells were exposed to selenylated imidazo[1,2-a]pyridines (0.1, 1, 10, 100, and 1000 μM) for up to 72 h. After this phase, cell medium was removed and the cells were washed twice with PBS and incubated with MTT solution (0.5 mg/mL) for 2 h. The insoluble formazan was dissolved by adding DMSO (100 μL/well), and colorimetric determination of MTT reduction was measured at 550 nm in a multireader Infinite M200 Tecan. Three independent experiments were conducted, and the results are presented as IC50 (half maximal inhibitory concentration).

[2] = system: HT-22 cells; experiment: MTT cytotoxicity assay, HT-22; type: cell-based, mouse; settings: Mus musculus, HT-22; 72 h, MTT
Experimental: as §1

Compound	IC50 [1] [µM]	Selectivity Index (SI) [1]	IC50 [2] [µM]
COc1ccc(-c2nc3cc(C)ccn3c2[Se]c2ccccc2)cc1 [IP-Se-10]	18.8	1.6	30
Cc1ccn2c([Se]c3cccc4ccccc34)c(-c3ccccc3)nc2c1 [IP-Se-05]	20.8	9.9	206
Cc1ccc([Se]c2c(-c3ccccc3)nc3cc(C)ccn23)cc1 [IP-Se-02]	73.2	1.9	144
COc1ccc([Se]c2c(-c3ccccc3)nc3cc(C)ccn23)cc1 [IP-Se-03]	27.6	0.1	3.9
Cc1ccn2c([Se]c3ccc(Cl)cc3)c(-c3ccccc3)nc2c1 [IP-Se-04]	43.6	7.0	306
